Experimental findings from ChEMBL document CHEMBL1134720, “Antitumour benzothiazoles. Part 15: The synthesis and physico-chemical properties of 2-(4-aminophenyl)benzothiazole sulfamate salt derivatives” (Bioorg Med Chem Lett, 2001) are described below.

Data set [1] can be described thus: Log P (Octanol:buffer pH 7.4). It counts as physicochemical.
Data set [2] is described as follows: Log P (Cyclohexane:buffer pH 7.4). It counts as physicochemical.
The nature of data set [3]: Delta Log P was determined. It counts as physicochemical. Conditions: octanol/water.
For data set [4], the system named is MCF7. Briefly: Antitumor activity expressed as inhibitory concentration against human breast cell line MCF-7(ER+ve). It counts as functional, cell-based.
Data set [5] is described as follows: Antitumor activity expressed as inhibitory concentration against human breast cell line MDA 468(ER-ve). Conditions: MDA-MB-468. It counts as functional, cell-based.
Data set [6] is described as follows: Solubility of compound at pH 6. It counts as physicochemical. Conditions: buffer.
Data set [7] in a line: Solubility of compound at pH 7.5. As to conditions: buffer. It counts as physicochemical.
Data set [8] can be described thus: Solubility of compound at pH 7.1. It counts as physicochemical. Conditions: buffer.
Data set [9] in a line: Solubility of compound at pH 4.2. It counts as physicochemical. Conditions: buffer.
Data set [10] in a line: Solubility of compound at pH 9. It counts as physicochemical. Conditions: buffer.
Data set [11] can be described thus: Solubility of compound at pH 5.4. It counts as physicochemical. As to conditions: buffer.

Each structure is given as a SMILES string. Where only a bound is given, the exact number is not on record here.

As for `Cc1cc(-c2nc3ccccc3s2)ccc1NS(=O)(=O)[O-].[Na+]`, the logD in data set [1] was 0.6; in [2], under 3. The “delta Log P” value in [3] is given as over 2.4. For the same compound, the IC50 in [4] amounted to 490 nM; in data set [5], 720 nM.
Take `O=S(=O)([O-])Nc1ccc(-c2nc3ccccc3s2)cc1I.[Na+]`: the logD in data set [1] turned out to be 1.8; in data set [2], 1.9. Further, the values for the IC50 in data set [4] and in data set [5] were 1800 nM and 1900 nM, respectively.
In the case of `Nc1ccc(-c2nc3ccccc3s2)cc1Cl`, the figures for the log distribution coefficient (logD) in data set [1] and in data set [2] were over 3.3 and over 3.2, respectively.
Taken in the same sequence, the figures for `Nc1ccc(-c2nc3ccccc3s2)cc1Br` were over 3.3 and over 2.8.
Taken in the same sequence, the figures for `Nc1ccc(-c2nc3ccccc3s2)cc1I` were over 3.3 and over 2.7.
The corresponding values for `Cc1cc(-c2nc3ccccc3s2)ccc1N` are 3.96 and 2.51.
As for `O=S(=O)([O-])Nc1ccc(-c2nc3ccccc3s2)cc1Cl.[Na+]`, the solubility in data set [6] was 400 µg/mL; in data set [7], 300 µg/mL; in [8], 300 µg/mL; in [9] it was 500 µg/mL; in data set [10] it was 700 µg/mL; in data set [11], 300 µg/mL. Also, the figures for the log distribution coefficient (logD) in data set [1] and in data set [2] were 0.02 and under 2.19, respectively. Moreover, in [3], the “delta Log P” value is given as over 2.17. Besides, the IC50 stood at 420 nM in [4] and 9000 nM in [5].
On to `O=S(=O)(O)Nc1ccc(-c2nc3ccccc3s2)cc1`, for which the logD in data set [1] was 3.4. The IC50 came out at 3400 nM in [4] and 7500 nM in [5].
